# Measured values taken from article PMC5057115, “Cathelicidins in the Tasmanian devil (Sarcophilus harrisii)” (Scientific Reports, 2016).
# Where a SMILES comes first, the peptide text is derived from it. Where no end group is shown, it is not given here.
# Key:
# [1] = test system: human red blood cells; assay type: cell-based; settings: red cells of human, 24 h
# Method: Tissue expression of devil cathelicidin prepropeptides was determined by real-time PCR on a range of secretory, immune, reproductive, gastrointestinal and respiratory tissues, as well as BLAST searches of the milk transcriptome. Opportunistic tissue samples for real-time PCR were collected from Taronga Zoo (Sydney) from devils which were subject to euthanasia due to old age and advanced disease. […] Ltd. and their antimicrobial activity against bacterial and fungal pathogens determined by broth microdilution susceptibility assay according to clinical laboratory standards institute guidelines. Antimicrobial activity was expressed as minimum inhibitory concentration (MIC). Cytotoxicity was assessed in the human cell line A549 and haemolytic activity determined against human blood. Statistical significance of peptide effect on cell survival in comparison to the untreated control was calculated using a one sample t-test. Pouch microbiome analysis was performed on swabs from the pouch of lactating and non-lactating devils to detect changes in microbe populations. Pouch swab collection was carried out in accordance with the Save the Tasmanian Devil Program and was approved by the Animal Ethics Committee of the University of Sydney (permit number 681). page 3: […] Two antibiotics, ampicillin and tetracycline, were included as a positive control for bacteria, and the […] A well containing cells and media only was used as a “no drug” control to ensure that cultures grew normally. Bacteria were subcultured on Mueller Hinton agar (MHA) or Sheep blood agar (BA) for 24 hours at 35 °C for Staphylococcus spp., Pseudomonas spp., Enterococcus spp. and E.coli, with 5% CO2 for Streptococcus spp., K.pneumoniae, P.multocida, […] Similarly, fungi were subcultured on Sabouraud agar (SAB) at 35 °C for 24 hours prior to the test. Colonies were resuspended in saline and the OD530 measured with a McFarland reader. If necessary the suspension was diluted to 0.45-0.55 McFarland units with saline. […] Assays Antimicrobial activity was expressed as minimum inhibitory concentration (MIC), which was defined as the lowest concentration of cathelicidin preventing visible growth, relative to the negative control. Colonies which grew on agar plates were also counted. Cytotoxicity Cytotoxicity was assessed in the human A549 cell line maintained in Dulbecco’s Modification of Eagle’s Medium (DMEM) supplemented with 10% foetal bovine serum (FBS), 2mM L -glutamine, 50units/mL penicillin and 50μg/mL streptomycin. […] Following incubation for a further 24 hours, cell viability was determined using alamar blue (Invitrogen) which was added to each well. […]
# [2] = test system: E. faecalis ATCC 29212; assay: microbe, parasite or virus in culture; assay type: cell-based, Enterococcus faecalis; settings: Enterococcus faecalis, ATCC29212; broth microdilution (CLSI), 64 to 0.125 μg/mL, 24 h at 35 °C; ATCC strain; read-out: MIC
# Method: (§1) Tissue expression of devil cathelicidin prepropeptides was determined by real-time PCR on a range of secretory, immune, reproductive, gastrointestinal and respiratory tissues, as well as BLAST searches of the milk transcriptome. Opportunistic tissue samples for real-time PCR were collected from Taronga Zoo (Sydney) from devils which were subject to euthanasia due to old age and advanced disease. The mature peptides of all six devil cathelicidins were synthesised by ChinaPeptides Co. Ltd. and their antimicrobial activity against bacterial and fungal pathogens determined by broth microdilution susceptibility assay according to clinical laboratory standards institute guidelines. Antimicrobial activity was expressed as minimum inhibitory concentration (MIC). Cytotoxicity was assessed in the human cell line A549 and haemolytic activity determined against human blood. Statistical significance of peptide effect on cell survival in comparison to the untreated control was calculated using a one sample t-test. Pouch microbiome analysis was performed on swabs from the pouch of lactating and non-lactating devils to detect changes in microbe populations. Pouch swab collection was carried out in accordance with the Save the Tasmanian Devil Program and was approved by the Animal Ethics Committee of the University of Sydney (permit number 681). […]
# (§2) base (YNB) for fungi, from a concentration of 64μg/mL to 0.125μg/mL in a final volume of 100 μL .
# (§3) Two antibiotics, ampicillin and tetracycline, were included as a positive control for bacteria, and the antifungal drug fluconazole for fungi. A well containing cells and media only was used as a “no drug” control to ensure that cultures grew normally. Bacteria were subcultured on Mueller Hinton agar (MHA) or Sheep blood agar (BA) for 24 hours at 35 °C for Staphylococcus spp., Pseudomonas spp., Enterococcus spp. and E.coli, with 5% CO2 for Streptococcus spp., K.pneumoniae, P.multocida, L.monocytogenes and N.asteroides. Similarly, fungi were subcultured on Sabouraud agar (SAB) at 35 °C for 24 hours prior to the test. Colonies were resuspended in saline and the OD530 measured with a McFarland reader. If necessary the suspension was diluted to 0.45-0.55 McFarland units with saline. […] Assays Antimicrobial activity was expressed as minimum inhibitory concentration (MIC), which was defined as the lowest concentration of cathelicidin preventing visible growth, relative to the negative control. […]
# (§4) 570nm and 620nm using the Victor 3 multilabel plate reader (PerkinElmer). […] To x i city of cathelicidins was calculated according to Invitrogen recommendations and expressed as percentage cell survival compared to the untreated growth control. […]
# (§5) Haemolytic activity was assessed using 10mL of human blood collected into potassium -ED T A vacutainers (BD). […]
# [3] = test system: E. coli ATCC 25922; assay: microbe, parasite or virus in culture; assay type: cell-based, Escherichia coli; settings: Escherichia coli, ATCC25922; broth microdilution (CLSI), 64 to 0.125 μg/mL, 24 h at 35 °C, lowest concentration preventing visible growth; ATCC strain; read-out: MIC
# Method: as §1, §2, §3, §4, §5
# [4] = test system: S. pneumoniae ATCC 49619; assay: microbe, parasite or virus in culture; assay type: cell-based; settings: Streptococcus pneumoniae, ATCC49619; broth microdilution (CLSI), 64 to 0.125 μg/mL, 24 h at 35 °C with 5% CO2; ATCC strain; read-out: MIC
# Method: as §1, §2
# (§6) Two antibiotics, ampicillin and tetracycline, were included as a positive control for bacteria, and the antifungal drug fluconazole for fungi. A well containing cells and media only was used as a “no drug” control to ensure that cultures grew normally. Bacteria were subcultured on Mueller Hinton agar (MHA) or Sheep blood agar (BA) for 24 hours at 35 °C for Staphylococcus spp., Pseudomonas spp., Enterococcus spp. and E.coli, with 5% CO2 for Streptococcus spp., K.pneumoniae, P.multocida, L.monocytogenes and N.asteroides. Similarly, fungi were subcultured on Sabouraud agar (SAB) at 35 °C for 24 hours prior to the test. Colonies were resuspended in saline and the OD530 measured with a McFarland reader. If necessary the suspension was diluted to 0.45-0.55 McFarland units with saline. Following a 1:150 dilution for bacteria and twostep dilution for fungi (1:50, 1:20), 100 μL of microorganisms (1x106 – 5 x10^5 cells/mL) were pipetted into wells 2-12, the first well acting as a negative control. Colony counts were performed using a 1:1000 dilution for bacteria and 1:10 for fungi spread onto MHA/BA or SAB plates respectively. The 96 well microdilution and agar plates were incubated for 24 hours at 35 °C (Escherichia coli, Staphylococcus spp., Enterococcus spp. and Pseudomonas spp.), with 5% CO2 (Streptococcus spp. Pasteurella multocida, Klebsiella pneumoniae, Listeria monocytogenes a nd Nocardia asteroids) for bacteria, and 35 °C for 48 hours (Candida spp .) or 72 hours (Cryptococcus spp.) for fungi. Assays Antimicrobial activity was expressed as minimum inhibitory concentration (MIC), which was defined as the lowest concentration of cathelicidin preventing visible growth, relative to the negative control. […]
# (§7) DMEM and positive control of dimethylsulfoxide (DMSO) (1%) were also included. […]
# (§8) 570nm and 620nm using the Victor 3 multilabel plate reader (PerkinElmer). The assay was performed on two separate occasions. To x i city of cathelicidins was calculated according to Invitrogen recommendations and expressed as percentage cell survival compared to the untreated growth control. A significant difference between cathelicidin treated and control cell survival was tested using a o ne sample t-test (p<0.05).
# (§9) Haemolytic activity was assessed using 10mL of human blood collected into potassium -ED T A vacutainers (BD). The blood was washed three times with 30mL of calcium and magnesium -free Dulbecco’s phosphate buffered saline (DPBS) and cells were collected by centrifugation at 2000 x g […]
# (§10) for 10 minutes. […]
# [5] = test system: C. parapsilosis ATCC 22019; assay: microbe, parasite or virus in culture; assay type: cell-based; settings: Lodderomyces parapsilosis, ATCC22019; broth microdilution (CLSI), YNB, 64 to 0.125 μg/mL, 48 hours at 35 °C; ATCC strain; read-out: MIC
# Method: as §1, §2, §6, §7, §8, §9, §10
# [6] = test system: S. aureus ATCC 29213; assay: microbe, parasite or virus in culture; assay type: cell-based, Staphylococcus aureus; settings: Staphylococcus aureus, ATCC29213; broth microdilution (CLSI), 64 to 0.125 μg/mL, 24 h at 35 °C; ATCC strain; read-out: MIC
# Method: as §1, §2, §3, §4, §5
# [7] = test system: P. aeruginosa ATCC 27853; assay: microbe, parasite or virus in culture; assay type: cell-based, Pseudomonas aeruginosa; settings: Pseudomonas aeruginosa, ATCC27853; broth microdilution (CLSI), 64 to 0.125 μg/mL, 24 h at 35 °C; ATCC strain; read-out: MIC
# Method: as §1, §2, §3, §4, §5
# [8] = test system: 25 bacterial and 6 fungal strains; assay type: cell-based; settings: against the bacteria and fungi tested (25 bacterial and 6 fungal strains of Table 2), broth microdilution (CLSI)
# Text: To assess the antimicrobial activity of devil cathelicidins, we tested synthesized mature peptides on 25 bacterial and 6 fungal strains (Table 2). As there were no Tasmanian devil specific isolates available, human and veterinary strains were used. The antimicrobial activity of Tasmanian devil cathelicidin mature peptides Saha-CATH1 to 6 against bacteria and fungi is summarised in Table 2. […] As such, these values are not included in Table 2. Saha-CATH3 had highly specific activity, as it was unable to kill any bacteria, but killed Cryptococcus neoformans. […]
# Tissue expression of devil cathelicidin prepropeptides was determined by real-time PCR on a range of secretory, immune, reproductive, gastrointestinal and respiratory tissues, as well as BLAST searches of the milk transcriptome. […] The mature peptides of all six devil cathelicidins were synthesised by ChinaPeptides Co. Ltd. and their antimicrobial activity against bacterial and fungal pathogens determined by broth microdilution susceptibility assay according to clinical laboratory standards institute guidelines. Antimicrobial activity was expressed as minimum inhibitory concentration (MIC). Cytotoxicity was assessed in the human cell line A549 and haemolytic activity determined against human blood. Statistical significance of peptide effect on cell survival in comparison to the untreated control was calculated using a one sample t-test. […]
compound,measurement,setting,value
CC[C@H](C)[C@H](NC(=O)CN)C(=O)N[C@@H](CCCCN)C(=O)N[C@@H](Cc1c[nH]cn1)C(=O)N[C@H](C(=O)N[C@@H](CC(C)C)C(=O)N[C@@H](Cc1ccccc1)C(=O)N[C@@H](CCSC)C(=O)N[C@@H](C)C(=O)N[C@@H](CCCCN)C(=O)N[C@H](C(=O)N[C@@H](CCCCN)C(=O)N[C@@H](CC(C)C)C(=O)N1CCC[C@H]1C(=O)N[C@@H](CCCNC(=N)N)C(=O)N[C@@H](C)C(=O)N[C@H](C(=O)N[C@@H](CS)C(=O)N[C@H](C(=O)N[C@@H](C)C(=O)N[C@@H](CCC(=O)O)C(=O)N[C@H](C(=O)N[C@@H](CCCCN)C(=O)N[C@@H](CCC(=O)O)C(=O)N[C@@H](CC(N)=O)C(=O)N[C@@H](CS)C(=O)N[C@@H](CC(=O)O)C(=O)N[C@@H](CCCNC(=N)N)C(=O)N[C@@H](CCCCN)C(=O)N[C@@H](CCCCN)C(=O)O)[C@@H](C)CC)[C@@H](C)O)[C@@H](C)O)[C@@H](C)O)[C@@H](C)CC [Saha-CATH1] (H-GIKHILFMAKTKLPRATCTAEIKENCDRKK-OH; N-terminus and C-terminus assumed),haemolysis compared with the positive control,[1],below 7%
"CC1(C)S[C@@H]2[C@H](NC(=O)[C@H](N)c3ccccc3)C(=O)N2[C@H]1C(=O)O [ampicillin, reference compound]",MIC,[2],1 µg/mL
same,MIC,[3],8 µg/mL
same,MIC,[4],0.125 µg/mL
"OC(Cn1cncn1)(Cn1cncn1)c1ccc(F)cc1F [fluconazole, reference compound]",MIC,[5],2 µg/mL
"CN(C)[C@@H]1C(O)=C(C(N)=O)C(=O)[C@@]2(O)C(O)=C3C(=O)c4c(O)cccc4[C@@](C)(O)[C@H]3C[C@@H]12 [tetracycline, reference compound]",MIC,[6],0.125 µg/mL
same,MIC,[7],8 µg/mL
KREDFLDQIIRDFRNFIYQKYRRLRDEFRKLRDILSG [Saha-CATH4],haemolysis compared with the positive control,[1],below 7%
same,minimum inhibitory concentration (MIC),[8],greater than 64 μg/mL
TFKRKNGSRKNGHRPGGYSLIALGNKKVLKAPYMESI [Saha-CATH2],haemolysis compared with the positive control,[1],below 7%
same,minimum inhibitory concentration (MIC),[8],greater than 64 μg/mL
